What is called logP is a log measure of how a compound divides between an organic and an aqueous phase. A higher logP goes with a more lipophilic compound.

Consider `Cn1c(=O)[nH]c(=O)c2c1[nH]c(=O)n2C`, for which the logP is -1.33.

`CN(C=O)c1c(N)n(C)c(=O)n(C)c1=O`: the logP was -1.32. To `Cn1cnc2[nH]c(=O)[nH]c(=O)c21` belongs -0.89; to `Cn1c(=O)[nH]c(=O)c2[nH]c(=O)[nH]c21`, -1.08; to `Cn1c(=O)c2[nH]c(=O)[nH]c2n(C)c1=O`, -0.52. To `Cn1c(=O)[nH]c(=O)c2[nH]cnc21` belongs -0.5; to `Cn1c(N)c(NC=O)c(=O)n(C)c1=O`, -0.64. To `Cn1c(=O)[nH]c2[nH]c(=O)[nH]c2c1=O` belongs -0.57; to `Cn1c(=O)[nH]c2[nH]c(=O)[nH]c(=O)c21`, -1.18. Consider `Cn1c(=O)c2c([nH]c(=O)n2C)n(C)c1=O`, for which the logP was -0.37. Consider `Cn1c(=O)[nH]c2[nH]c(=O)n(C)c2c1=O`, for which the log partition coefficient (logP) was -0.22.

Regarding `Cn1c(=O)[nH]c2nc[nH]c2c1=O`, the logP was -0.27.

`CN(C=O)c1c(N)[nH]c(=O)n(C)c1=O`: the logP is -2.03.

Take `CN(C=O)c1c(N)n(C)c(=O)[nH]c1=O`: the logP is -1.3.

The values above are taken from the OPERA property sets (Mansouri et al. 2018).
